Measured values reported in US7449498B2, “Composite materials for bone defect filling and bone replacement” (Yesbio Co., Ltd., priority 2005, dated 2008).

Test: Measurement of exothermic temperature during polymerization
Format: physicochemical
Conditions: FIG. 3
Procedure: The composite material was mixed for 30 seconds and injected to a mold having a size in 5 mm of height and 3 mm of radius. Then, the temperature changes was measured in 3 samples per each group by inserting a thermocouple and read with a thermocouple reader (Yocogawa, Japan).

C=C(C#N)C(=O)OCCCC [BCA, n-butyl-2-cyanoacrylate]
temperature changes during polymerizing, in words: excessively exothermic
